# Source: patent US10617641B2, “Composition for preventing or treating ischemic diseases, containing liposomes in which VEGF-derived peptides are supported” (INDUSTRIAL COOPERATION FOUNDATION CHONBUK NATIONAL …, priority 2015, dated 2020)
# Test system: myocardial infarction-induced rats
# Experiment: Relative perfusion of the heart (99mTc-tetrofosmin autoradiography) in myocardial infarction model rats
# Format: in vivo, Sprague-Dawley rats
# Settings: 200 μL through an apical puncture, after one week
# Procedure: First, 8-week-old Sprague-Dawley rats were purchased from Orientbio Inc., and acclimated for 3 days under conditions such as a temperature of 22±3° C., a relative humidity of 60±20%, an air ventilation cycle of 10 to 20 times/hour, a 12-hour light/dark cycle (light on 08:00 A.M. and light off 08:00 P.M.), sterile feed, and water supplies. […] After a week, ^99mtechnetium (Tc)-tetrofosmin was used as a myocardial perfusion imaging agent to obtain an autoradiographic images of rat hearts, and the relative perfusion was measured using a method represented by the following Equation 1 to evaluate an therapeutic effect of the VEGF-derived peptide. Relative perfusion (%)={(Activity value of ^99mTc-tetrofosmin in cardiac ischemic area)/Activity value of ^99mTc-tetrofosmin in septum)}×100 [Equation 1]
# All the subsequent statistical analyses were performed using SAS ver. 9.2 (SAS Institute, Cary, US), the significance of difference was determined using a Duncan's multiple range test (MRT) and ANOVA, and a significant difference at p<0.05 was evaluated. All data was assumed to be significant within a range of 5%, and represented by an average±standard deviation (SD).
substance,measurement,value
Ac-MRIKPHQGQHI-NH2 [VEGF-derived peptide],perfusion-improving effect (relative perfusion) compared to the control (PBS),significant results were not observed
